How the values were obtained:
human thrombocytes = experiment: Inhibiting the binding of ^3 H-BIBU 52 to human thrombocytes; details: human thrombocytes in plasma; ^3 H-BIBU 52 final concentration 5 nM; ambient temperature, 20 minutes; read-out: ^3 H-BIBU-52-binding test IC50
Method: 1. Inhibiting the Binding of ^3 H-BIBU 52 to Human Thrombocytes:
A suspension of human thrombocytes in plasma is incubated with ^3 H-BIBU 52 [=(3S,5S)-5-[(4'-amidino-4-biphenylyl)oxymethyl]-3-[(carboxy)methyl]-2-pyrrolidinone[3-^3 H-4-biphenylyl]], replacing the ligand ^125 I-fibrinogen known from the literature, (cf. DE-A-4,214.245) and various concentrations of the substance to be tested. The free and bound ligand is separated off by centrifuging and quantitatively determined by scintillation counting. From the results obtained, the inhibition of ^3 H-BIBU 52 binding by the test substance is determined.
In order to do this, donor blood is taken from an anticubital vein and anticoagulated with trisodium citrate (final concentration 13 mM). The blood is centrifuged for 10 minutes at 170×g and the supernatant platelet-rich plasma (PRP) is removed. The residual blood is sharply centrifuged off once more in order to obtain plasma. The PRP is diluted 1:10 with autologous plasma. 750 μl are incubated with 50 μl of physiological saline, 100 μl of test substance solution, 50 μl of ^14 C sucrose (3.700 Bq) and 50 μl of ^3 H-BIBU 52 (final concentration: 5 nM) at ambient temperature for 20 minutes. […] 100 μl of it are measured in order to determine the free ligand. The pellet is dissolved in 500 μl of 0.2N NaOH, 450 μl are mixed with 2 ml of scintillator and 25 μl of 5N HCl and measured. […]

thrombocyte aggregation = experiment: Antithrombotic activity: inhibition of collagen-induced platelet (thrombocyte) aggregation in platelet-rich plasma; format: cell-based; details: Homo sapiens, 10 min, platelet-rich plasma from healthy test subjects, incubated with substance at 37° C. for 10 minutes, 50% change in optical density
Method: 2. Antithrombotic Activity:
The thrombocyte aggregation is measured by the Born and Cross method (J. Physiol. 170, 397 (1964)) in platelet-rich plasma from healthy test subjects. To inhibit clotting, the blood is mixed with 3.14% sodium citrate in a ratio by volume of 1:10.
Collagen-Induced Aggregation
The progress of the decrease in optical density of the platelet suspension is measured photometrically after the addition of the aggregation-triggering substance and recorded. The rate of aggregation is calculated from the angle of inclination of the density curve. The point on the curve at which there is greatest light permeability is used to calculate the optical density.
The quantity of collagen is selected to be as small as possible but still sufficient to produce an irreversible reaction curve. The standard commercial collagen made by Hormonchemie of Munich is used.
Before the collagen is added, the plasma is incubated with the substance at 37° C. for 10 minutes.
From the measurements obtained, an EC50 was determined graphically corresponding to a 50% change in the optical density in terms of inhibiting aggregation.

Row | IC50 (human thrombocytes) [nM] | SMILES | EC50 (thrombocyte aggregation) [nM]
1 | 51 | N=C(N)c1ccc(NC(=O)CCN2CCC(CC(=O)O)CC2)cc1 [1(1), 1-[2-[(4-amidinophenyl)aminocarbonyl]ethyl]-4-carboxymethyl-piperidine] | 310
2 | 3.7 | N=C(N)c1ccc(NC(=O)CCC2CCN(CC(=O)O)CC2)cc1 [Example 1, 4-[2-[(4-amidinophenyl)aminocarbonyl]ethyl]-1-carboxymethyl-piperidine] | 37

Source: patent publication US5958952A, “Substituted phenylamindines, medicaments containing these compounds and process for producing them” (Dr. Karl Thomae GmbH, priority 1995, dated 1999)
